# Test results taken from patent US11370769B2, “TRPC5 inhibitors and methods of using same” (BOARD OF REGENTS OF THE UNIVERSITY OF NEBRASKA, priority 2017, dated 2022).
# What was measured:
# caAT1R podocytes = test: Cell viability assay in podocytes expressing caAT1R; format: cell-based, mouse; settings: 30 μM ML204, 30 μM AC1903 or 50 μM NSC23677 for 36 hours
# Experimental: Podocyte culture and viral transduction: Immortalized mouse podocytes were cultured as previously described (10, 11). Podocyte viral transduction was performed using lentivirus as previously described (10, 11). Briefly, lentivirus production was carried out in HEK293T cells at 60% confluence, and viral particles were collected two days after transfection and purified by centrifugation at 1,000 rcf for 5 min. Purified lentivirus was frozen at −80° C. until further use. Podocytes were transduced with lentivirus after 7 days of differentiation, and assays were performed 5 days after viral transduction.
# For experiments in FIG. 4B/C, pCDNA3.1 AT1AR-Δ324 (rat AT1R NM_030985.4) containing HA tag (Plasmid #45635, Addgene) underwent site directed mutagenesis (Agilent) to generate the N111S substitution. For FIG. 4B, differentiated podocytes were transduced with the AT1A-N111S/Δ324 construct in six-well plates. Six days after viral transduction, cells were treated with either vehicle, 30 μM ML204, 30 μM AC1903 or 50 μM NSC23677 for 36 hours. Intracellular production of ROS was measured using a cell-permeable fluorescent dye, 5-(and-6)-chloromethyl-2′,7′-dichlorodihydrofluorescein diacetate, acetyl ester (CM-H2DCFDA, Molecular Probes). Cells were incubated with 5 μM CM-H2DCFDA at 37° C. for 45 min in Hanks' balanced salt solution (HBSS). Cells were then collected, resuspended in HBSS, stained with propidium iodide and the fluorescence intensity was assessed by flow cytometry using MACSQuant Analyzer (Miltenyi Biotec, Bergisch Gladbach, Germany). Living cells, which were PI negative, were selected by FACS gating and the fluorescence of CM-H2DCFDA was recorded on the FL-1 channel (525 nm). For FIG. 4C, differentiated podocytes were transduced with the AT1A-N111S/Δ324 construct in 96 well plates. Six days after transduction, the cells were treated with either vehicle, 30 μM ML204, 30 μM AC1903 or 50 μM NSC23677 for 36 hours. […]
# TRPC5 channel = biological target: T1, TRPC5 channel (Rattus norvegicus, UniProt Q8VD38); test: Glomerular inside-out single-channel recordings, riluzole-activated TRPC5 channel activity; format: cell-based; settings: Rilu 3 μM
# T1 construct: Acutely isolated glomeruli were prepared as described above; from tissue; host or cells: acutely isolated glomeruli (podocytes) of AT1R Tg and WT rats
# T1 sequence (Q8VD38 1-974): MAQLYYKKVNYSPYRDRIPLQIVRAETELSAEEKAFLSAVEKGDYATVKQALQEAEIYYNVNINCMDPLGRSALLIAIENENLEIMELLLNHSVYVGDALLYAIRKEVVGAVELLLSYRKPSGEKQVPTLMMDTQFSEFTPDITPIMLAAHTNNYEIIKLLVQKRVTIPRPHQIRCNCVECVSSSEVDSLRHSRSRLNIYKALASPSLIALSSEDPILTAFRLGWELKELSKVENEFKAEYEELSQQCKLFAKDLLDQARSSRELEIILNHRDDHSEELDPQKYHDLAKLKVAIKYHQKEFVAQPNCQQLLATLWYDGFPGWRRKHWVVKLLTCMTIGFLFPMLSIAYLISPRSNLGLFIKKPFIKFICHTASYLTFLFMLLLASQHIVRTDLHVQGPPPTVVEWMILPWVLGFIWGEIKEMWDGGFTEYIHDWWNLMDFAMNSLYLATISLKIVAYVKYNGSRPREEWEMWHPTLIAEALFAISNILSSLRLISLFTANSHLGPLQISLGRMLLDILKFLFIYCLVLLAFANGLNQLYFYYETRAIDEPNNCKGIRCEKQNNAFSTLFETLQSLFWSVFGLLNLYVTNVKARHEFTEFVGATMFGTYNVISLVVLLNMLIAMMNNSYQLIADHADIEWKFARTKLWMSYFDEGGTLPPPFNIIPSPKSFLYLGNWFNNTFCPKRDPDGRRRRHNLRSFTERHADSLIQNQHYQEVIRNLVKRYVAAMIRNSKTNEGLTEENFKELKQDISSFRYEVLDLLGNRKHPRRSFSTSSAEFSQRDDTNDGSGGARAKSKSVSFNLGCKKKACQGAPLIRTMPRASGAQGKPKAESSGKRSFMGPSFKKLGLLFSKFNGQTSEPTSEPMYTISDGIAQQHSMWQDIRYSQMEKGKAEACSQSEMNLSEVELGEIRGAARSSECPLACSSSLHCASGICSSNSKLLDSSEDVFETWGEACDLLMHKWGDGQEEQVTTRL
# Experimental: Acute glomeruli isolation and Ca^2+-imaging: WT and AT1R Tg littermates were killed and kidneys were quickly dissected and washed with ice-cold PBS. After isolation using the sieving technique as previously described (11), glomeruli were incubated with the Ca^2+ indicator Fura2-AM (1 μM; Invitrogen) at 37° C. for 15 min. The extracellular solution for Ca^2+-imaging contained (in mM) 140 NaCl, 5 KCl, 10 HEPES, 2 MgCl2, 2 CaCl2, 10 glucose, with pH7.4 adjusted with NaOH. Glomerular Ca^2+-imaging was performed using an inverted microscope (Olympus IX70) with a high-speed CCD camera (Hamamatsu Photonics). Images were taken and analyzed using the Metafluor software (Molecular Devices). It should be noted that Fura-2 is most often taken up by podocytes at the periphery of the isolated glomerulus, but the specificity of recordings in podocytes is best confirmed by patch clamp electrophysiology, as described below.
# Glomerular single-channel recordings: Acutely isolated glomeruli were prepared as described above. Single-channel recordings were carried out using an Axopatch 200B and Digidata 1550A (Molecular Devices). Bath and pipette solutions for glomerular single-channel recording contained (in mM) 135 CH3SO3Na, 5 CsCl, 2 CaCl2, 1 MgCl2, 10 HEPES, and 10 glucose with pH7.4 adjusted with NaOH. Once in the inside-out configuration, the bath solution was replaced by intracellular solution, containing (in mM) 135 CH3SO3Cs, 10 CsCl, 3 MgATP, 0.2 EGTA, 0.13 CaCl2, and 10 HEPES with pH 7.4 adjusted with CsOH. Patch pipettes, with resistance of 4-8 MΩ, were prepared using a two step-protocol (P-97, Sutter Instrument). Pipettes were fire-polished before use. For inside-out configuration, a giga-seal (>10 GΩ) was established prior to membrane rupture. Data was acquired at 10 kHz sampling frequency, and filtered with low-pass filtering at 1 kHz. Holding membrane potential was at −60 mV. Single-channel analysis was carried out using Clampfit 10.4 software (Molecular Devices).
SMILES,podocyte cell death on caAT1R expression (caAT1R podocytes),"block of TRPC5 channel activity, inside-out recordings in intact glomeruli (TRPC5 channel; AT1R Tg rats, Advanced, AC1903 1 μM)","inhibition of riluzole-activated channel activity, inside-out recordings of podocytes (TRPC5 channel; AT1R Tg rat glomeruli at disease onset (Onset), ML204 1 μM)","inhibition of riluzole-activated conductance, inside-out recordings of podocytes (TRPC5 channel; AT1R Tg rat glomeruli, established disease (Advanced), ML204 1 μM)"
c1ccc(Cn2c(NCc3ccco3)nc3ccccc32)cc1 [AC1903],protected from cell death,blocks TRPC5 channel activity,–,–
"Cc1cc(N2CCCCC2)nc2ccccc12 [ML204, reference compound]",protected from cell death,–,significant ML204 inhibition of channel activity,inhibition of a much greater riluzole-activated conductance
